# According to patent US20080107614A1, “PEPTIDE-BASED CONDITIONERS” (priority 2006, published 2008):
# Ends that are not written are not given here. * marks the point of attachment. Biotin = O=C1N[C@H]2[C@H](CS[C@H]2CCCCC(=O)*)N1
# What was measured:
# [1] = ELISA of phage-peptide clones on pig skin (specificity control); type: binding; conditions: for Pig Skin A450: phage ELISA, anti-M13 HRP conjugate, mean of at least three replicates
# Protocol: (§1) Enzyme-linked immunosorbent assay (ELISA) was used to evaluate the hair-binding specificity of selected phage-peptide clones. Phage-peptide clones identified in Examples 1 and 2 along with a randomly chosen control G-F9, KHGPDLLRSAPR (given as SEQ ID NO:63) were amplified. More than […] (plaque forming units) phage were added to pre-blocked hair surfaces.
# (§2) A unique hair or pig skin-bottom 96-well apparatus was created by applying one layer of PARAFILM® under the top 96-well block of a Minifold I Dot-Blot System (Schleicher & Schuell, Inc., Keene, N.H.), adding hair or a layer of hairless pig skin on top of the PARAFILM® cover, and then tightening the apparatus. For each clone to be tested, the hair-covered well was incubated for 1 h at room temperature with 200 μL of blocking buffer, consisting of 2% non-fat dry milk (Schleicher & Schuell, Inc.) in TBS. A second Minifold system with pig skin at the bottom of the wells was treated with blocking buffer simultaneously to serve as a control. The blocking buffer was removed by inverting the systems and blotting them dry with paper towels. The systems were rinsed 6 times with wash buffer consisting of TBST-0.05%. The wells were filled with 200 μL of TBST-0.5% containing 1 mg/mL BSA and then 10 μL (over […]) of purified phage stock was added to each well. The samples were incubated at 37° C. for 15 min with slow shaking. The non-binding phage was removed by washing the wells 10 to 20 times with TBST-0.5%. Then, 100 μL of horseradish peroxidase/anti-M13 antibody conjugate (Amersham USA, Piscataway, N.J.), diluted 1:500 in the blocking buffer, was added to each well and incubated for 1 h at room temperature. The conjugate solution was removed and the wells were washed 6 times with TBST-0.05%. TMB (3,3′,5,5′-tetramethylbenzidine) substrate (200 μL), obtained from Pierce Biotechnology (Rockford, Ill.) was added to each well and the color was allowed to develop for between 5 to 30 min, typically for 10 min, at room temperature. Then, stop solution (200 μL of 2 M H2SO4) was added to each well and the solution was transferred to a 96-well plate and the A450 was measured using a microplate spectrophotometer (Molecular Devices, Sunnyvale, Calif.). The resulting absorbance values, reported as the mean of at least three replicates, and the standard error of the mean (SEM) are given in Table 10.
# [2] = ELISA of phage-peptide clones on hair; type: binding, human; conditions: for Hair A450: phage ELISA, anti-M13 HRP conjugate, mean of at least three replicates
# Protocol: as §1, §2
# [3] = ELISA-based MB50 determination on pig skin; type: binding; conditions: for binding affinity for skin: in words, from MB50; for EC50: substrate Pig Skin, biotinylated peptide
# Description: (§3) The term “MB50” refers to the concentration of the binding peptide that gives a signal that is 50% of the maximum signal obtained in an ELISA-based binding assay as described herein. The MB50 provides an indication of the strength of the binding interaction or affinity of the components of the complex. The lower the value of MB50, the stronger the interaction of the peptide with its corresponding substrate.
# (§4) Hair-binding and skin-binding peptides were synthesized by SynPep Inc. (Dublin, Calif.). The peptides were biotinylated by adding a biotinylated lysine residue at the C-terminus of the amino acid binding sequences for detection purposes and an amidated cysteine was added to the C-terminus of the sequence.
# (§5) For hair samples, the procedure used was as follows. The setup of the surface specific 96-well system used was the same as that described in Example 5. Briefly, the 96-wells with hair or pig skin surfaces were blocked with blocking buffer (SUPERBLOCK™ from Pierce Chemical Co., Rockford, Ill.) at room temperature for 1 h, followed by six washes with TBST-0.5%, 2 min each, at room temperature. Various concentrations of biotinylated, binding peptide were added to each well, incubated for 15 min at 37° C., and washed six times with TBST-0.5%, 2 min each, at room temperature. Then, streptavidin-horseradish peroxidase (HRP) conjugate (Pierce Chemical Co.) was added to each well (1.0 μg per well), and incubated for 1 h at room temperature. After the incubation, the wells were washed six times with TBST-0.5%, 2 min each at room temperature. Finally, the color development and the measurement were performed as described in Example 5.
# For the measurement of MB50 of the peptide-skin complexes, the following procedure was used. First, the pigskin was treated to block the endogenous biotin in the skin. This was done by adding streptavidin to the blocking buffer. After blocking the pigskin sample, the skin was treated with D-biotin to block the excess streptavidin binding sites. The remaining steps were identical to those used for the hair samples.
# (§6) The results were plotted as A450 versus the concentration of peptide using GraphPad Prism 4.0 (GraphPad Software, Inc., San Diego, Calif.).
# [4] = Titer-based assay of hair-binding phage clones; parameters: species or system human; conditions: output pfu retained by 10 mg of normal hair; input 10^14 pfu; acid-eluted phage
# Protocol: Phage clones displaying specific peptides were used for comparing the binding characteristics of different peptide sequences. A titer-based assay was used to quantify the phage binding. This assay measures the output pfu retained by 10 mg of hair surfaces, having a signal to noise ratio of 10^3 to 10^4. The input for all the phage clones was 10^14 pfu. It should be emphasized that this assay measures the peptide-expressing phage particle, rather than peptide binding.
# Normal hairs were cut into 0.5 cm lengths and 10 mg of the cut hair was placed in each well of a 96-well filter plate (Qiagen). Then, the wells were filled with blocking buffer containing 1 mg/mL BSA in TBST-0.5% and incubated for 1 h at 4° C. The hairs were washed 5 times with TBST-0.5%. The wells were then filled with 1 mL of TBST-0.5% containing 1 mg/mL BSA and then purified phage clones (10^14 pfu) were added to each well. The hair samples were incubated for 15 min at room temperature and then washed 10 times with TBST-0.5%. The hairs were transferred to a clean well and 1.0 mL of a non-specific elution buffer, consisting of 1 mg/mL BSA in 0.2 M Glycine-HCl at pH 2.2, was added to each well. The samples were incubated for 10 min and then 160 μL of neutralization buffer (1 M Tris-HCl, pH 9.2) was added to each well. The eluted phage from each well were transferred to a new tube for titering and sequencing analysis.
# To titer the bound phage, the eluted phage was diluted with SM buffer to prepare 10-fold serial dilutions of 10^1 to 10^8. A 10 μL aliquot of each dilution was incubated with 200 μL of mid-log phase E. coli ER2738 (New England BioLabs), and grown in LB medium for 20 min and then mixed with 3 mL of agarose top (LB medium with 5 mM MgCl2, and 0.7% agarose) at 45° C. This mixture was spread onto a LB medium/IPTG/Xgal (5-bromo-4-chloro-3-indolyl-β-D-galactopyranoside) plate (LB medium with 15 g/L agar, 0.05 g/L IPTG, and 0.04 g/L Xgal) and incubated overnight at 37° C.
# [5] = ELISA-based MB50 determination on hair; type: binding, human; conditions: for binding affinity for respective substrate (hair): in words, from MB50; for EC50: biotinylated peptide
# Description: as §3, §4, §5, §6
# [6] = Peptide competition ELISA with D21 phage; type: binding, human
# Protocol: The purpose of this Example was to test the peptide binding site specificity and affinity of the hair-binding peptide D21 using a competition ELISA. The ELISA assay only detects phage particles that remain bound to the hair surface.
# The synthetic hair-binding peptide D21, given as SEQ ID NO:46 was synthesized by SynPep (Dublin, Calif.). As a control, an unrelated synthetic skin-binding peptide (SK-1), given as SEQ ID NO:61, was added to the system. The experimental conditions were similar to those used in the ELISA method described in Example 5. Briefly, 100 μL of Binding Buffer (1×TBS with 0.1% Tween® 20 and 1 mg/mL BSA) and 10^11 pfu of the pure D21 phage particles were added to each well of the 96-well filter plate, which contained a sample of normal hair. The synthetic peptide (100 μg) was added to each well (corresponding to concentration of 0.8 mM). The reactions were carried out at room temperature for 1 h with gentle shaking, followed by five washes with TBST-0.5%. The remaining steps were identical to the those used in the ELISA method described in Example 5. Each individual ELISA test was performed in triplicate; the values in Table 11 are the means of the triplicate determinations.
# [7] = in words, from the data in Table 10
Substance,Pig Skin A450 [1],Hair A450 [2],Phage Titer [4],other results
AKTHKHPAPSYS [Clone C13],0.024,0.375,,
Binding Peptide D21: biotinylated hair-binding peptide D21 (binding sequence SEQ ID NO:46) (RTNAADHPAAVTK(Biotin)C-NH2; N-terminus assumed; SMILES CC(C)[C@H](NC(=O)[C@H](C)NC(=O)[C@H](C)NC(=O)[C@@H]1CCCN1C(=O)[C@H](Cc1c[nH]cn1)NC(=O)[C@H](CC(=O)O)NC(=O)[C@H](C)NC(=O)[C@H](C)NC(=O)[C@H](CC(N)=O)NC(=O)[C@@H](NC(=O)[C@@H](N)CCCNC(=N)N)[C@@H](C)O)C(=O)N[C@H](C(=O)N[C@@H](CCCCNC(=O)CCCC[C@@H]1SC[C@@H]2NC(=O)N[C@@H]21)C(=O)N[C@@H](CS)C(N)=O)[C@@H](C)O),,,,binding affinity for skin [3]: relatively low
DLHTVYH (displayed on phage; Hair-binding peptide) [Clone A],,,7.50 × 10^4,
EQISGSLVAAPW [Clone A5],0.256,0.431,,
GPHDTSSGGVRPNLHHTSKKEKRENRKVPFYSHSVTSRGNV [Clone D5],0.104,0.652,,
GPHDTSSGGVRPNLHHTSKKEKRENRKVPFYSHSVTSRGNV [Clone G],,,1.67 × 10^8,
HIKPPTR (displayed on phage; Hair-binding peptide) [Clone B],,,1.21 × 10^5,
HLTVPWRGGGSAVPFYSHSQITLPNH [Clone F],,,1.11 × 10^6,
HPVWPAI (displayed on phage; Hair-binding peptide) [Clone D],,,8.20 × 10^4,
I-B5 (TPPELLHGDPRS; Hair-binding peptide) [listing 1 of 2 here],,,,binding affinity for skin [3]: relatively low; binding affinity for respective substrate (hair) [5]: high
I-B5 (TPPELLHGDPRS; Hair-binding peptide) [listing 2 of 2 here],,,,EC50 [3]: > 100000 nM; EC50 ([5]; substrate Normal and Bleached Hair): 300 nM
"KHGPDLLRSAPR [Clone G-F9, reference compound]",−0.137,0.074,,
KHPTYRQ (displayed on phage; Hair-binding peptide) [Clone H],,,1.30 × 10^6,
LGIPQNL (displayed on phage; Hair-binding peptide) [Clone D39],0.086,0.685,,
LPRIANTWSPS [Clone F35],,,,binding affinity for respective substrate (hair) [5]: high; EC50 ([5]; substrate Bleached Hair): 3000 nM
MHAHSIA (displayed on phage; Hair-binding peptide) [Clone A36],0.173,0.585,,
MPKYYLQ (displayed on phage; Hair-binding peptide) [Clone J],,,1.24 × 10^6,
MPLYYLQ (displayed on phage; Hair-binding peptide) [Clone E],,,1.70 × 10^5,
NSPGYQADSVAIG [Clone D30],0.287,0.414,,
RTNAADHPAAVT [Clone D21],,,,"A450 ([6]; 10^11 pfu D21 phage on normal hair, synthetic peptide 100 μg per well (0.8 mM) where added, mean of triplicate): 1.878"
RTNAADHPAAVT [Peptide D21],0.04,1.051,,"EC50 [3]: 40000 nM; affinity for pig skin [1, 7]: very low; competition with the phage clone D21 for the same binding sites on the hair surface ([6]; in words): does compete; binding affinity for hair [2, 7]: very strong; selectivity for hair compared to pig skin [2, 7]: highest; binding affinity for respective substrate (hair) [5]: high; EC50 ([5]; substrate Normal Hair): 2000 nM"
SLNWVTIPGPKI [Clone C10],0.032,0.542,,
TAATTSP (displayed on phage; Hair-binding peptide) [Clone B1],0.127,0.42,,
TDMQAPTKSYSN [Clone C5],0.047,0.548,,
TPALDGLRQPLR [Clone C18],0.132,0.34,,
TPFHSPENAPGS [SK-1],,,,binding affinity for skin [3]: high; EC50 [3]: 700 nM
